ChEMBL document CHEMBL3232730, “Design, synthesis and bioevaluation of N-trisubstituted pyrimidine derivatives as potent aurora A kinase inhibitors” (Eur J Med Chem, 2014)

Tests used:
[1] = biological target: T1, Aurora kinase A (Homo sapiens, UniProt O14965); experiment: Inhibition of Aurora A (unknown origin) using FAM-labeled peptide as substrate preincubated for 10 mins followed by substrate addition measured after 60 mins
T1 sequence (O14965 whole entry): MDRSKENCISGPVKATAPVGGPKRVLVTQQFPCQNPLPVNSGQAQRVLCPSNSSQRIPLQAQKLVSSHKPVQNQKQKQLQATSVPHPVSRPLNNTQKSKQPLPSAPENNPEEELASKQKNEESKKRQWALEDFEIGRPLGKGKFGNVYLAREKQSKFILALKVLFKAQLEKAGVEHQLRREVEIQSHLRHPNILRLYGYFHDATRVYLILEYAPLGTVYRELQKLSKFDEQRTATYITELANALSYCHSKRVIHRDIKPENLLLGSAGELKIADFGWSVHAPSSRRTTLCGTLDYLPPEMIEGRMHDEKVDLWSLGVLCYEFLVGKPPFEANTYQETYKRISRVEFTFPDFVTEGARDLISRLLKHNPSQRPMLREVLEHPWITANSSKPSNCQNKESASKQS

[2] = test system: PC-3; experiment: Antiproliferative activity against human PC3 cells assessed as cell viability after 72 hrs by CCK8 assay; type: functional, cell-based
[3] = test system: HCT-116; experiment: Antiproliferative activity against human HCT116 cells assessed as cell viability after 72 hrs by CCK8 assay; type: functional, cell-based
[4] = test system: HeLa; experiment: Antiproliferative activity against human HeLa cells assessed as cell viability after 72 hrs by CCK8 assay; type: functional, cell-based
[5] = test system: MDA-MB-231; experiment: Antiproliferative activity against human MDA-MB-231 cells assessed as cell viability after 72 hrs by CCK8 assay; type: functional, cell-based
[6] = test system: K562; experiment: Antiproliferative activity against human K562 cells assessed as cell viability after 72 hrs by CCK8 assay; type: functional, cell-based
[7] = test system: A549; experiment: Antiproliferative activity against human A549 cells assessed as cell viability after 72 hrs by CCK8 assay; type: functional, cell-based; conditions: A549, 72 h
[8] = test system: DU-145; experiment: Antiproliferative activity against human DU145 cells assessed as cell viability after 72 hrs by CCK8 assay; type: functional, cell-based
[9] = test system: A-431; experiment: Antiproliferative activity against human A431 cells assessed as cell viability after 72 hrs by CCK8 assay; type: functional, cell-based
[10] = test system: HL-60; experiment: Antiproliferative activity against human HL60 cells assessed as cell viability after 72 hrs by CCK8 assay; type: functional, cell-based
[11] = test system: NCI-N87; experiment: Antiproliferative activity against human NCI-N87 cells assessed as cell viability after 72 hrs by CCK8 assay; type: functional, cell-based
[12] = test system: U-937; experiment: Antiproliferative activity against human U937 cells assessed as cell viability after 72 hrs by CCK8 assay; type: functional, cell-based
[13] = test system: MCF7; experiment: Antiproliferative activity against human MCF7 cells assessed as cell viability after 72 hrs by CCK8 assay; type: functional, cell-based
[14] = Antiproliferative activity against human MOLT4 cells assessed as cell viability after 72 hrs by CCK8 assay; type: functional, cell-based, MOLT-4
[15] = Antiproliferative activity against human PANC1 cells assessed as cell viability after 72 hrs by CCK8 assay; type: functional, cell-based; conditions: PANC-1, 72 h
[16] = Antiproliferative activity against human SKBR3 cells assessed as cell viability after 72 hrs by CCK8 assay; type: functional, cell-based, SK-BR-3
[17] = Cell cycle arrest in human CNE2 cells assessed as accumulation at S phase at 1 uM after 24 hrs by propidium iodide staining-based flow cytometric analysis (reference value: 14.7%); type: functional; conditions: CNE-2
[18] = Cell cycle arrest in human CNE2 cells assessed as accumulation at G2/M phase at 1 uM after 24 hrs by propidium iodide staining-based flow cytometric analysis (reference value: 38.2%); type: functional; conditions: CNE-2
[19] = Cell cycle arrest in human CNE2 cells assessed as accumulation at polyploid period at 1 uM after 24 hrs by propidium iodide staining-based flow cytometric analysis (reference value: […]); type: functional; conditions: CNE-2
[20] = Cell cycle arrest in human CNE2 cells assessed as accumulation at G1 phase at 1 uM after 24 hrs by propidium iodide staining-based flow cytometric analysis (reference value: 52.5%); type: functional; conditions: CNE-2
[21] = Homo sapiens, PC-3, 72 h, read-out: IC50
[22] = Homo sapiens, HCT-116, 72 h, read-out: IC50
[23] = Homo sapiens, HeLa, 72 h, read-out: IC50
[24] = Homo sapiens, MDA-MB-231, 72 h, read-out: IC50
[25] = Homo sapiens, K562, 72 h, read-out: IC50
[26] = Homo sapiens, DU-145, 72 h, read-out: IC50
[27] = Homo sapiens, A-431, 72 h, read-out: IC50
[28] = Homo sapiens, HL-60, 72 h, read-out: IC50
[29] = Homo sapiens, NCI-N87, 72 h, read-out: IC50
[30] = Homo sapiens, U-937, 72 h, read-out: IC50
[31] = Homo sapiens, MCF7, 72 h, read-out: IC50
[32] = Homo sapiens, MOLT-4, 72 h, read-out: IC50
[33] = Homo sapiens, SK-BR-3, 72 h, read-out: IC50

IC50 [1]	IC50 [2, 21]	IC50 [3, 22]	IC50 [4, 23]	IC50 [5, 24]	IC50 [6, 25]	IC50 [7]	IC50 [8, 26]	IC50 [9, 27]	IC50 [10, 28]	IC50 [12, 30]	IC50 [13, 31]	Compound	IC50 [11, 29]	IC50 [14, 32]	IC50 [15]	IC50 [16, 33]	also measured
101 nM	–	–	–	–	–	–	–	–	–	–	–	CNC(=O)c1ccc(Nc2nc(Nc3cc(C)[nH]n3)cc(N3CCN(C)CC3)n2)cc1	–	–	–	–	–
8 nM	977 nM	650 nM	331 nM	75.7 nM	58.1 nM	785 nM	1270 nM	140 nM	21.8 nM	9.03 nM	372 nM	Cc1cc(Nc2cc(N3CCN(C)CC3)nc(Nc3ccc(C#N)cc3)n2)n[nH]1	5780 nM	13.6 nM	435 nM	883 nM	–
200 nM	–	–	–	–	–	–	–	–	–	–	–	COc1ccccc1Nc1nc(Nc2cc(C)[nH]n2)cc(N2CCN(C)CC2)n1	–	–	–	–	Activity [17]: 8.2%; Activity [18]: 49%; Activity [19]: 3.7%; Activity [20]: 38.7%
34 nM	2000 nM	2240 nM	867 nM	243 nM	271 nM	2650 nM	5050 nM	385 nM	335 nM	92.3 nM	2750 nM	COc1ccc(Nc2nc(Nc3cc(C)[nH]n3)cc(N3CCN(C)CC3)n2)cc1	18900 nM	116 nM	1120 nM	14700 nM	Activity [17]: 2.2%; Activity [18]: 90.6%; Activity [19]: 2.4%; Activity [20]: 3.4%
135 nM	–	–	–	–	–	–	–	–	–	–	–	COC(=O)c1ccc(Nc2nc(Nc3cc(C)[nH]n3)cc(N3CCNCC3)n2)cc1	–	–	–	–	–
112 nM	–	–	–	–	–	–	–	–	–	–	–	Cc1cc(Nc2cc(N3CCN(C)CC3)nc(Nc3ccc(N4CCOCC4)cc3)n2)n[nH]1	–	–	–	–	–
7.7 nM	1380 nM	1590 nM	322 nM	124 nM	137 nM	1590 nM	900 nM	83.3 nM	129 nM	55 nM	813 nM	COC(=O)c1ccc(Nc2nc(Nc3cc(C)[nH]n3)cc(N3CCN(C)CC3)n2)cc1Cl	3620 nM	42.9 nM	508 nM	2160 nM	–
12 nM	1090 nM	1630 nM	331 nM	84.4 nM	137 nM	723 nM	1200 nM	150 nM	69.8 nM	43.3 nM	424 nM	Cc1cc(Nc2cc(N3CCN(C)CC3)nc(Nc3ccc([N+](=O)[O-])cc3)n2)n[nH]1	3880 nM	18.1 nM	442 nM	437 nM	–
549 nM	–	–	–	–	–	–	–	–	–	–	–	Cc1cc(Nc2cc(N3CCN(C)CC3)nc(Nc3ccc(N4CC(=O)N(C5CC5)CC4=O)cc3)n2)n[nH]1	–	–	–	–	–
16 nM	962 nM	1820 nM	1110 nM	114 nM	138 nM	926 nM	1340 nM	166 nM	90.9 nM	25.2 nM	642 nM	Cc1cc(Nc2cc(N3CCN(C)CC3)nc(Nc3cccc([N+](=O)[O-])c3)n2)n[nH]1	4320 nM	26 nM	457 nM	2180 nM	–
118 nM	–	–	–	–	–	–	–	–	–	–	–	CC(=O)Nc1ccc(Nc2nc(Nc3cc(C)[nH]n3)cc(N3CCN(C)CC3)n2)cc1	–	–	–	–	–
113 nM	–	–	–	–	–	–	–	–	–	–	–	COC(=O)c1ccc(Nc2nc(Nc3cc(C)[nH]n3)cc(N3C[C@@H](C)O[C@@H](C)C3)n2)cc1	–	–	–	–	–
97 nM	–	–	–	–	–	–	–	–	–	–	–	COC(=O)c1ccc(CNc2nc(Nc3cc(C)[nH]n3)cc(N3CCOCC3)n2)cc1	–	–	–	–	–
228 nM	–	–	–	–	–	–	–	–	–	–	–	COC(=O)c1ccc(Nc2nc(NCCN3CCCCC3)cc(Nc3cc(C)[nH]n3)n2)cc1	–	–	–	–	–
34 nM	2060 nM	1240 nM	1700 nM	716 nM	556 nM	1730 nM	791 nM	1610 nM	604 nM	233 nM	1990 nM	COC(=O)c1ccc(Nc2nc(Nc3cc(C)[nH]n3)cc(N3CCN(S(C)(=O)=O)CC3)n2)cc1	10900 nM	215 nM	1220 nM	5850 nM	–
5 nM	4380 nM	12200 nM	3060 nM	1210 nM	1430 nM	16700 nM	926 nM	2760 nM	213 nM	100 nM	2680 nM	Cc1cc(Nc2cc(N3CCN(C)CC3)nc(Nc3ccc(S(N)(=O)=O)cc3)n2)n[nH]1	24000 nM	648 nM	8760 nM	15900 nM	–
–	5810 nM	4320 nM	2930 nM	127 nM	79.1 nM	3050 nM	400 nM	240 nM	38.2 nM	36 nM	1300 nM	Cc1cc(Nc2cc(N3CCN(C)CC3)nc(Sc3ccc(NC(=O)C4CC4)cc3)n2)n[nH]1 [TOZASERTIB]	11600 nM	21.2 nM	4130 nM	9990 nM	–
11 nM	967 nM	2600 nM	607 nM	204 nM	355 nM	1040 nM	631 nM	331 nM	1600 nM	210 nM	1070 nM	Cc1cc(Nc2cc(N3CCOCC3)nc(Nc3ccc([N+](=O)[O-])cc3)n2)n[nH]1	17500 nM	60.7 nM	580 nM	960 nM	–
72 nM	–	–	–	–	–	–	–	–	–	–	–	COC(=O)c1ccc(Nc2nc(NCCN3CCOCC3)cc(Nc3cc(C)[nH]n3)n2)cc1	–	–	–	–	–
13 nM	1480 nM	1370 nM	619 nM	138 nM	192 nM	631 nM	2240 nM	162 nM	83.4 nM	55.4 nM	840 nM	Cc1cc(Nc2cc(N3CCN(C)CC3)nc(Nc3ccc(Cl)cc3)n2)n[nH]1	7470 nM	53.1 nM	455 nM	1610 nM	–
573 nM	–	–	–	–	–	–	–	–	–	–	–	COC(=O)c1ccc(Nc2nc(Nc3cc(C)[nH]n3)cc(N3CCN(S(=O)(=O)c4ccc(C)cc4)CC3)n2)cc1	–	–	–	–	–
147 nM	–	–	–	–	–	–	–	–	–	–	–	Cc1cc(Nc2cc(N3CCN(C)CC3)nc(Nc3ccccc3Cl)n2)n[nH]1	–	–	–	–	–
127 nM	–	–	–	–	–	–	–	–	–	–	–	COC(=O)c1ccc(CNc2nc(Nc3cc(C)[nH]n3)cc(N3CCN(C)CC3)n2)cc1	–	–	–	–	Activity [17]: 6.2%; Activity [18]: 35.3%; Activity [19]: 3%; Activity [20]: 55.4%
32 nM	–	–	–	–	–	19700 nM	–	–	–	–	–	Cc1cc(Nc2cc(N3CCN(C)CC3)nc(Nc3ccc(C(=O)O)cc3)n2)n[nH]1	–	–	39300 nM	–	IC50 ([2]; pc-3): Not Active; IC50 ([3]; hct-116): Not Active; IC50 ([4]; hela): Not Active; IC50 ([5]; mda-mb-231): Not Active; IC50 ([6]; k562): Not Active; IC50 ([8]; du-145): Not Active; IC50 ([9]; a-431): Not Active; IC50 ([10]; hl-60): Not Active; IC50 ([11]; nci-n87): Not Active; IC50 ([12]; u-937): Not Active; IC50 ([13]; mcf7): Not Active; IC50 ([14]; molt-4): Not Active; IC50 ([16]; sk-br-3): Not Active
